The source made the active and inactive calls.

A short description of assay [1]: microbe, parasite or virus in culture. The class given is functional. The following applies: Mycobacterium tuberculosis.
The target in another assay is Large T antigen (Simian virus 40, UniProt P03070). The class given is functional, Betapolyomavirus macacae.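 Further: Confirmatory-stage PubChem screen for compounds that inhibit SV40 T antigen.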
Assay [2] concerns the target T1, Calpain-2 catalytic subunit (Sus scrofa, UniProt P43367).
T1 sequence (P43367 whole entry): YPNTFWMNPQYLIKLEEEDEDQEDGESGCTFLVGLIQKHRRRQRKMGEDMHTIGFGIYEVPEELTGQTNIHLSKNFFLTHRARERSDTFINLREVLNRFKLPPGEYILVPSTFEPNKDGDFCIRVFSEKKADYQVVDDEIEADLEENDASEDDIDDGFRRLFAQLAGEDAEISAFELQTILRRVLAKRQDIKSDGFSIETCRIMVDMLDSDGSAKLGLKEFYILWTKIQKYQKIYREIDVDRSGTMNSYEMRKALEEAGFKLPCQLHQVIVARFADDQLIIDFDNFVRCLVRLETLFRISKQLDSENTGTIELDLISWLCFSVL
Put plainly: m-calpain protease blockers, concentration series – biochemical, fluorogenic peptide substrate, dose response (AID 1420). The class given is functional.

For assay [3], the target named is T2, Rac GTPase-activating protein 1 (Homo sapiens, UniProt Q9H0H5).
T2 sequence (Q9H0H5 whole entry): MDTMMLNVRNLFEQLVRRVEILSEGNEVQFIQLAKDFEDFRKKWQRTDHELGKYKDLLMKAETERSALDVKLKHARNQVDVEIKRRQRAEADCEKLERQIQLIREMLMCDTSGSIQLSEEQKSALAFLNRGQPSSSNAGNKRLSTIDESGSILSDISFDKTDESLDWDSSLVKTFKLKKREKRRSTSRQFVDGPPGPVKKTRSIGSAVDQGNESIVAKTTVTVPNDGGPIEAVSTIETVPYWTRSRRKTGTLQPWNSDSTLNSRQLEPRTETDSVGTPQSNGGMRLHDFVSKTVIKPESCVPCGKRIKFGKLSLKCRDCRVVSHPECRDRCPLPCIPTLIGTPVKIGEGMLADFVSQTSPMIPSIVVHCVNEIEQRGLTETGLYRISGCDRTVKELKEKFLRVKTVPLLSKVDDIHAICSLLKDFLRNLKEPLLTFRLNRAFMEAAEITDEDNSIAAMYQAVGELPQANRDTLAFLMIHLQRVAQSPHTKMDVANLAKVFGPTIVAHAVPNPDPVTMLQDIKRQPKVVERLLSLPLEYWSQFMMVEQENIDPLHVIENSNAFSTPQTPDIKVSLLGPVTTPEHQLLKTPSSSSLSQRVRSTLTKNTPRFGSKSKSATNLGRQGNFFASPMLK
Put plainly: blockers of MgcRacGAP-driven Rac1 GTP hydrolysis – biochemical, ADP Hunter fluorescence, primary and confirmatory, confirmation (AID 624330). Format: functional.

A further assay relates to Streptococcus. Put plainly: GAS UMAA2166 growth inhibition – luminescence, BacTiterGlo, counter-screen for streptokinase expression inhibitor project, dose response (AID 1915).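 Further: potency for reduction of bacterial viability or growth.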 Format: functional, organism-based.
In assay [4] the test system is Streptococcus sp. 'group A'. Put plainly: Streptococcus pyogenes SK(-)GAS viability under kanamycin – luminescence, BacTiterGlo, confirmation, counter-screen for streptokinase expression inhibitor project, dose response (AID 1900). Format: functional, organism-based.
The next assay addresses T3, Streptokinase A (Streptococcus pyogenes serotype M1, UniProt P10520).
T3 sequence (P10520 whole entry): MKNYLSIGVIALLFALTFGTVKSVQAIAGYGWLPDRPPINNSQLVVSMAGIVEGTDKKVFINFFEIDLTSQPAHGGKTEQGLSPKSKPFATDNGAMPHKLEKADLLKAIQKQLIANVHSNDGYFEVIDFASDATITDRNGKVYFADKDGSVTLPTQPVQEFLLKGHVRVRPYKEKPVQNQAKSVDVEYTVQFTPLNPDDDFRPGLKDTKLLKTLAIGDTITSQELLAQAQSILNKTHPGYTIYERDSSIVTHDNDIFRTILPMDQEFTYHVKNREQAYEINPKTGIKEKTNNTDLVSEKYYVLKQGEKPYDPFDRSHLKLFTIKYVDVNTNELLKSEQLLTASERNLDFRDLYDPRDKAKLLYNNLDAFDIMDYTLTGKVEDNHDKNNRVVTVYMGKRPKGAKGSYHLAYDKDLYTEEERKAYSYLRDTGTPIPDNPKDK
Put plainly: viability-normalized secreted streptokinase activity reduction – plasminogen activation absorbance, OD405, dose response (AID 1914).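 Further: secreted streptokinase activity via plasminogen activation per viability signal from cell pellet.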 The class given is functional, Streptococcus pyogenes M1 GAS.

Assay [5] addresses T4, RNA-binding protein pos-1 (Caenorhabditis elegans, UniProt G5EF15).
T4 sequence (G5EF15 whole entry): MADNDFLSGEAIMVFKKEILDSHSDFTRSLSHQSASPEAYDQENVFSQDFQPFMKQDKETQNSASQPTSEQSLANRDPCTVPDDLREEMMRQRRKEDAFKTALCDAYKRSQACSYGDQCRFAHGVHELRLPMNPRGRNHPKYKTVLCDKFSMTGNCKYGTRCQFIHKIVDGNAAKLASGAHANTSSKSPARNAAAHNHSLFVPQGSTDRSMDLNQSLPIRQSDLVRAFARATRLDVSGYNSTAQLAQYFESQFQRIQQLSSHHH
The assay is described as follows: disruptors of C. elegans POS-1 RNA interaction – biochemical, fluorescence polarization, dose response (AID 1964).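 Further: purified POS-1 fused to maltose binding protein made in E. coli; potency of compounds blocking POS-1 binding to fluorescent RNA.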

Assay [6] concerns the target T5, Zinc finger protein mex-5 (Caenorhabditis elegans, UniProt Q9XUB2).
T5 sequence (Q9XUB2 whole entry): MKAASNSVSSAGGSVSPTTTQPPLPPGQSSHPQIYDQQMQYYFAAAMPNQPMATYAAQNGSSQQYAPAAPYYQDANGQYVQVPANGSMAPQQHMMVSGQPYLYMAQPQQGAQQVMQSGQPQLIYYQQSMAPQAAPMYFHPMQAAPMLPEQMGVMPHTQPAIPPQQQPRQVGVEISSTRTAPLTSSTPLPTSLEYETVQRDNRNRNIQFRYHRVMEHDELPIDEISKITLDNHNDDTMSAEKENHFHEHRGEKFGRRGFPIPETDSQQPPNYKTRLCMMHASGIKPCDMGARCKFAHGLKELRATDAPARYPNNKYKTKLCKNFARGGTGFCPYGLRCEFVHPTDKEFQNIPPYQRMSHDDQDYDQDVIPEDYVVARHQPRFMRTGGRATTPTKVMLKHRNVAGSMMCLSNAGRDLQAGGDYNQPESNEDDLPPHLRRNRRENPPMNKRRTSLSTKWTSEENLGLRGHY
The assay is described as follows: potency of MEX-5 RNA-binding blockers – biochemical, C. elegans, fluorescence polarization, dose response (AID 1960).

The next assay has as its target Paired box protein Pax-8 (Homo sapiens, UniProt Q06710). Put plainly: PAX8 transcriptional activity inhibition in RMG-I – RMG-I cells, luciferase, cherry-pick, dose response (AID 687027).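 Further: luciferase reporter driven by Pax8 target thyroperoxidase promoter measured by SteadyGlo luminescence.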 The class given is functional, cell-based.

Large T antigen, sequence (P03070 whole entry): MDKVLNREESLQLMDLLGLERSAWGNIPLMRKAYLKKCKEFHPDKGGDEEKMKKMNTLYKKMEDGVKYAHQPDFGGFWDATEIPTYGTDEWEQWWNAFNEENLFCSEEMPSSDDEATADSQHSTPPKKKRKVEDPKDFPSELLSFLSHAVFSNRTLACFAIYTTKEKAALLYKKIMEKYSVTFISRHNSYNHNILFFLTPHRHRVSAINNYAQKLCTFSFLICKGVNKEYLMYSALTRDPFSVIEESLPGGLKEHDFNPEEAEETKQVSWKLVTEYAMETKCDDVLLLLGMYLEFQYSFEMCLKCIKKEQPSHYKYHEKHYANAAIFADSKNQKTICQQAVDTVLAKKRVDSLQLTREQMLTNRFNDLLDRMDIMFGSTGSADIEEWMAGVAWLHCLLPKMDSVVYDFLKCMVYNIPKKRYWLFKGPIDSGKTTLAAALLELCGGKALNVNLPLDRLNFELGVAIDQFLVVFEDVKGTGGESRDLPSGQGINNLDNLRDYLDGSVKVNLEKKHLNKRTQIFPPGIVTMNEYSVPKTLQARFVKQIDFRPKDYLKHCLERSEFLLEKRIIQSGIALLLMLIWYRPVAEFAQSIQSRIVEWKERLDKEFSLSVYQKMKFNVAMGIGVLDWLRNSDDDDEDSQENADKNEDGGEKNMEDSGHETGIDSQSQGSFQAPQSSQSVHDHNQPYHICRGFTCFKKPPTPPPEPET
Paired box protein Pax-8, sequence (Q06710 whole entry): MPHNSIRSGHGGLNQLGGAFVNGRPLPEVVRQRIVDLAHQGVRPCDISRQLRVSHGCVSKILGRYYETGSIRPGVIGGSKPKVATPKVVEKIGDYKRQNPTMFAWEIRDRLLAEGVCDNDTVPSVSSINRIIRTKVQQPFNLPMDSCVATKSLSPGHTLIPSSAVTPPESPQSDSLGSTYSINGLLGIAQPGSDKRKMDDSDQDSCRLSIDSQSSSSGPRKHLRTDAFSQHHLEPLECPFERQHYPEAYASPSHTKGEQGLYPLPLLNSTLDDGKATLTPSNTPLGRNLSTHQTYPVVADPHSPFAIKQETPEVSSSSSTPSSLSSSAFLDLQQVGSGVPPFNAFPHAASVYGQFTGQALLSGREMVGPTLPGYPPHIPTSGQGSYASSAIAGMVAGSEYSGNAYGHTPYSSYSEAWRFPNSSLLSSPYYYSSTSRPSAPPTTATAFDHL

`Oc1cc(CCl)nc(Cc2c(Cl)cccc2Cl)n1`: the CC50 in assay [1] was 21.7 µM (active).

Regarding `O=C(CN1C(=O)/C(=C\c2ccco2)SC1=S)Nc1ccc(O)cc1C(=O)O`, on Large T antigen, the IC50 is 74.2 µM (active).

On to `Nc1cc(C(=O)O)ccc1Nc1ccccc1`, for which the IC50 on Large T antigen was 12.5 µM (active). Consider `CCOC(=O)C1CCN(c2c([N+](=O)[O-])c(C(Cl)Cl)nn2-c2ccccc2)CC1`, for which the IC50 in assay [2] is on record as 8.97 µM (not active). As to `Cc1cc(C)n(CCC(=O)N/N=C/c2ccc(O)cc2)n1`, in assay [3], the IC50 is 77.2 µM (active). In the case of `COc1ccc(-c2cn(Cc3ccc(C(=O)NCc4ccc(C)cc4)cc3)c(C(C)N)n2)cc1` (stereo not given), in [1], the CC50 was > 40 µM (active). Take `CC(=O)N1CCN(c2ccc(NCc3cccs3)cc2)CC1`: the IC50 in assay [3] was 14.1 µM (active). As to `O=C(CSc1nc2ccccc2c(=O)n1-c1ccccc1)N1CCc2ccccc21`, the IC50 in assay [2] is recorded as 16.7 µM (not active). In the case of `Cc1cc(O)ccc1NC(=O)c1ccccc1`, the IC50 in assay [3] is 69.1 µM (active). With `Nc1ccc2nc(S)sc2c1`, the IC50 in [3] was 30.4 µM (active).

`COc1cccc(/C=C(/C(=O)OCC(=O)NC2CCCC(C)C2C)c2ccccc2)c1` (stereo not given): the figures for the EC50 (with Streptococcus; in assay [4]; on Streptokinase A) were 17.3 µM (active), 6.28 µM (active) and 6.84 µM (active), respectively. For the same compound, the IC50 in assay [2] is given as 11.6 µM (not active).

For the compound `CC1CC=C2C(C#N)=C(N)C(C#N)(C#N)C(c3cccs3)C2C1` (stereo not given), the figures for the EC50 in [5] and in [6] were 21.7 µM (active) and 14.9 µM (active), respectively. As for `Cc1ccc2cc(C#N)c(SCC(=O)NNC(=O)Cc3ccccc3)nc2c1`, the IC50 in [2] is 23.7 µM (not active). On the same count and under the same terms, for `Cc1ccc(Cl)cc1N(Cc1ccc(C(=O)NCc2cccnc2)cc1)S(=O)(=O)c1ccccc1` the value was 7.55 µM (not active).

Turning to `O=C1N=C(Nc2ccc(O)cc2)S/C1=C/c1ccco1`, the IC50 at Large T antigen is 3.47 µM (active).

For the compound `COc1cccc(CNC(=O)CN=C(S)N(Cc2ccccc2)Cc2ccccc2F)c1`, the IC50 in [2] is 6.84 µM (not active). As for `CCC(=O)Nc1ccc(Cl)c(NC(=S)NC(=O)c2cc3ccccc3o2)c1`, in assay [2], the IC50 is listed as 25.7 µM (not active).

`Cc1ccc(-c2nn(-c3ccccc3)cc2CNCc2ccccc2)cc1`: in assay [2], the IC50 is > 50 µM (not active).

In the case of `CCN(CC)C(=O)Cn1cc(/C=C2\C(=O)NC(=O)N(c3ccccc3F)C2=O)c2ccccc21`, the EC50 in assay [5] and in [6] was > 300 µM (not active) throughout. Regarding `COc1ccc(S(=O)(=O)Nc2ccc3c(c2)CC(=O)N([C@H](C)CO)C[C@H](C)[C@@H](CN(C)Cc2ccc(-c4ccccc4)cc2)O3)cc1`, the AC50 at Paired box protein Pax-8 was 9.41 µM (active).

In the case of `Fc1cc(F)cc(Nc2nc(Cl)nc(NC3CCCC3)n2)c1`, the CC50 in assay [1] is > 40 µM (active). In the case of `C[C@H]1CCCCO[C@H](CN(C)Cc2ccc(Cl)c(Cl)c2)[C@@H](C)CN([C@@H](C)CO)C(=O)c2cc(NC(=O)Nc3ccc(F)cc3)ccc2O1`, the AC50 at Paired box protein Pax-8 is 25.9 µM (active).

For `COc1ccc(-n2c(=O)c3c4c(sc3n3c(S)nnc23)COC(C(C)C)C4)cc1` (stereo not given), the IC50 on Large T antigen was 16.7 µM (active). As to `O=C(Nc1ccc2c(c1)OCO2)c1c(F)c(F)c(F)c(F)c1F`, the IC50 in [2] is recorded as > 50 µM (not active). For `COc1ccc(NC(=O)c2sc(S)nc2N)cc1`, the IC50 at Large T antigen was 7.51 µM (active).

Source of the values: ChEMBL document CHEMBL1201862, “PubChem BioAssay data set” (2004).
